Reference: patent publication US20230406885A1, “CYCLIC PEPTIDES FOR TRAPPING INTERLEUKIN-1 BETA” (MERCK SHARP & DOHME LLC, priority 2022, published 2023)
pIC50: −log10 of the molar value. *1 amine or outer side, *2 acyl side, *3 side chain or, on linkers, in order; H or OH if unused. Where a SMILES comes first, the peptide text is derived from it. [ ]: non-standard residue; d: D form. Trp(4-Cl)(βS-Me) = C[C@@H](c1c[nH]c2cccc(Cl)c12)[C@H](N)C(=O)O; Trp(βS-Me,4-F) = C[C@@H](c1c[nH]c2cccc(F)c12)[C@H](N)C(=O)O; Bip(4'-COOH) = N[C@@H](Cc1ccc(-c2ccc(C(=O)O)cc2)cc1)C(=O)O; Phe(3-CH2NH2) = O=C([C@H](Cc1cccc(CN[*:3])c1)N[*:1])[*:2]; Phe(4-COOH) = N[C@@H](Cc1ccc(C(=O)O)cc1)C(=O)O; Phe(4-CH2NH2) = NCc1ccc(C[C@H](N)C(=O)O)cc1; Phe(3-NH2) = Nc1cccc(C[C@H](N)C(=O)O)c1; Phe(4-NH2) = Nc1ccc(C[C@H](N)C(=O)O)cc1; Pro(4R-NH2) = N[C@H]1CN[C@H](C(=O)O)C1; hTyr = N[C@@H](CCc1ccc(O)cc1)C(=O)O; dDab = NCC[C@@H](N)C(=O)O; Orn = NCCC[C@H](N)C(=O)O; dNMeA = CN[C@H](C)C(=O)O; Dap = NC[C@H](N)C(=O)O

Target: T1, Recombinant human IL-1β (Homo sapiens, UniProt P01584)
T1 construct: purchased BioLegend 579404
Test: IL-6 assay in MRC5 cells: inhibition of IL-1β induced IL-6 secretion (AlphaLISA)
Format: cell-based
Conditions: inhibition of IL-1β induced IL-6 secretion in MRC5 cells; IL-1β pre-incubated 1 hour with compound; read-out: MRC5 IC50
Method in brief: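 IL-1β at 2×EC80 in seeding medium (EMEM, 0.025% BSA) preincubated 1 h at ambient temperature with compound, then 3000 MRC5 cells/well added and incubated overnight at 37 °C, 5% CO2. IL-6 in conditioned medium quantified by AlphaLISA; IC50 from 4-parameter logistic fit.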

T1 sequence (P01584 117-269): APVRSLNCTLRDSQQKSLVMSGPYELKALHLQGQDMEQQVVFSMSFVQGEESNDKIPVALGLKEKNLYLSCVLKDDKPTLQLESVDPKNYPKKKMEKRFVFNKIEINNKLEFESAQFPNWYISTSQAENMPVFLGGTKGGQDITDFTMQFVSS

Question: With `C[C@@H]1C(=O)NCC(=O)N[C@@H](Cc2ccc(-c3ccc(C(=O)O)cc3)cc2)C(=O)N[C@@H](CCCCN)C(=O)N[C@@H](CO)C(=O)N[C@H](CCN)C(=O)N[C@@H](CCc2ccc(O)cc2)C(=O)N[C@@H](Cc2ccc(-c3ccc(C(=O)O)cc3)cc2)C(=O)N[C@@H](Cc2c[nH]c3ccccc23)C(=O)N[C@@H](Cc2ccc(C(=O)O)cc2)C(=O)NCC(=O)N2C[C@H](N)C[C@H]2C(=O)N[C@@H]([C@@H](C)c2c[nH]c3cccc(Cl)c23)C(=O)N[C@@H](CC(=O)O)C(=O)N1C` [Example 46] (cyclo([Bip(4'-COOH)]W[Phe(4-COOH)]G[Pro(4R-NH2)][Trp(4-Cl)(βS-Me)]D[dNMeA]G[Bip(4'-COOH)]KS[dDab][hTyr])) as the compound, how does the pIC50 read?
Answer: 9.87

Question: How did the pIC50 turn out when `C[C@@H]1C(=O)NCC(=O)N[C@@H](Cc2ccc(-c3ccc(C(=O)O)cc3)cc2)C(=O)N[C@@H](CCCCN)C(=O)N[C@@H](CO)C(=O)N[C@H](CO)C(=O)N[C@@H](CCc2ccc(O)cc2)C(=O)N[C@@H](Cc2ccc(-c3ccc(C(=O)O)cc3)cc2)C(=O)N[C@@H](Cc2c[nH]c3ccccc23)C(=O)N[C@@H](Cc2ccc(C(=O)O)cc2)C(=O)NCC(=O)N2C[C@H](N)C[C@H]2C(=O)N[C@@H]([C@@H](C)c2c[nH]c3cccc(Cl)c23)C(=O)N[C@@H](CC(=O)O)C(=O)N1C` [Example 47] (cyclo([Bip(4'-COOH)]W[Phe(4-COOH)]G[Pro(4R-NH2)][Trp(4-Cl)(βS-Me)]D[dNMeA]G[Bip(4'-COOH)]KS[dS][hTyr])) was run?
Answer: 9.91

Question: `C[C@@H]1C(=O)NCC(=O)N[C@@H](Cc2ccc(-c3ccc(C(=O)O)cc3)cc2)C(=O)N[C@@H](Cc2cccc(CN)c2)C(=O)N[C@@H](CO)C(=O)N[C@H](C)C(=O)N[C@@H](CCc2ccc(O)cc2)C(=O)N[C@@H](Cc2ccc(-c3ccc(C(=O)O)cc3)cc2)C(=O)N[C@@H](Cc2c[nH]c3ccccc23)C(=O)N[C@@H](Cc2ccc(C(=O)O)cc2)C(=O)NCC(=O)N2C[C@H](N)C[C@H]2C(=O)N[C@@H]([C@@H](C)c2c[nH]c3cccc(Cl)c23)C(=O)N[C@@H](CC(=O)O)C(=O)N1C` [Example 48] (cyclo([Bip(4'-COOH)]W[Phe(4-COOH)]G[Pro(4R-NH2)][Trp(4-Cl)(βS-Me)]D[dNMeA]G[Bip(4'-COOH)][Phe(3-CH2NH2)]S[dA][hTyr])) was tested. Which pIC50 did it give?
Answer: 10.39

Question: How did the pIC50 turn out when `C[C@@H]1C(=O)NCC(=O)N[C@@H](Cc2ccc(-c3ccc(C(=O)O)cc3)cc2)C(=O)N[C@@H](CCCN)C(=O)N[C@@H](CO)C(=O)N[C@H](C)C(=O)N[C@@H](CCc2ccc(O)cc2)C(=O)N[C@@H](Cc2ccc(-c3ccc(C(=O)O)cc3)cc2)C(=O)N[C@@H](Cc2c[nH]c3ccccc23)C(=O)N[C@@H](Cc2ccc(C(=O)O)cc2)C(=O)NCC(=O)N2C[C@H](N)C[C@H]2C(=O)N[C@@H]([C@@H](C)c2c[nH]c3cccc(Cl)c23)C(=O)N[C@@H](CC(=O)O)C(=O)N1C` [Example 49] (cyclo([Bip(4'-COOH)]W[Phe(4-COOH)]G[Pro(4R-NH2)][Trp(4-Cl)(βS-Me)]D[dNMeA]G[Bip(4'-COOH)][Orn]S[dA][hTyr])) was run?
Answer: 9.40

Question: `C[C@@H]1C(=O)NCC(=O)N[C@@H](Cc2ccc(-c3ccc(C(=O)O)cc3)cc2)C(=O)N[C@@H](Cc2cccc(N)c2)C(=O)N[C@@H](CO)C(=O)N[C@H](C)C(=O)N[C@@H](CCc2ccc(O)cc2)C(=O)N[C@@H](Cc2ccc(-c3ccc(C(=O)O)cc3)cc2)C(=O)N[C@@H](Cc2c[nH]c3ccccc23)C(=O)N[C@@H](Cc2ccc(C(=O)O)cc2)C(=O)NCC(=O)N2C[C@H](N)C[C@H]2C(=O)N[C@@H]([C@@H](C)c2c[nH]c3cccc(Cl)c23)C(=O)N[C@@H](CC(=O)O)C(=O)N1C` [Example 50] (cyclo([Bip(4'-COOH)]W[Phe(4-COOH)]G[Pro(4R-NH2)][Trp(4-Cl)(βS-Me)]D[dNMeA]G[Bip(4'-COOH)][Phe(3-NH2)]S[dA][hTyr])) was tested. Which pIC50 did it give?
Answer: 9.28

Question: With `C[C@@H]1C(=O)NCC(=O)N[C@@H](Cc2ccc(-c3ccc(C(=O)O)cc3)cc2)C(=O)N[C@@H](Cc2ccc(CN)cc2)C(=O)N[C@@H](CO)C(=O)N[C@H](C)C(=O)N[C@@H](CCc2ccc(O)cc2)C(=O)N[C@@H](Cc2ccc(-c3ccc(C(=O)O)cc3)cc2)C(=O)N[C@@H](Cc2c[nH]c3ccccc23)C(=O)N[C@@H](Cc2ccc(C(=O)O)cc2)C(=O)NCC(=O)N2C[C@H](N)C[C@H]2C(=O)N[C@@H]([C@@H](C)c2c[nH]c3cccc(Cl)c23)C(=O)N[C@@H](CC(=O)O)C(=O)N1C` [Example 51] (cyclo([Bip(4'-COOH)]W[Phe(4-COOH)]G[Pro(4R-NH2)][Trp(4-Cl)(βS-Me)]D[dNMeA]G[Bip(4'-COOH)][Phe(4-CH2NH2)]S[dA][hTyr])) as the compound, how does the pIC50 read?
Answer: 9.49

Question: How did the pIC50 turn out when `C[C@@H]1C(=O)NCC(=O)N[C@@H](Cc2ccc(-c3ccc(C(=O)O)cc3)cc2)C(=O)N[C@@H](Cc2ccc(N)cc2)C(=O)N[C@@H](CO)C(=O)N[C@H](C)C(=O)N[C@@H](CCc2ccc(O)cc2)C(=O)N[C@@H](Cc2ccc(-c3ccc(C(=O)O)cc3)cc2)C(=O)N[C@@H](Cc2c[nH]c3ccccc23)C(=O)N[C@@H](Cc2ccc(C(=O)O)cc2)C(=O)NCC(=O)N2C[C@H](N)C[C@H]2C(=O)N[C@@H]([C@@H](C)c2c[nH]c3cccc(Cl)c23)C(=O)N[C@@H](CC(=O)O)C(=O)N1C` [Example 52] (cyclo([Bip(4'-COOH)]W[Phe(4-COOH)]G[Pro(4R-NH2)][Trp(4-Cl)(βS-Me)]D[dNMeA]G[Bip(4'-COOH)][Phe(4-NH2)]S[dA][hTyr])) was run?
Answer: 9.34

Question: How did the pIC50 turn out when `C[C@@H]1C(=O)NCC(=O)N[C@@H](Cc2ccc(-c3ccc(C(=O)O)cc3)cc2)C(=O)N[C@@H](Cc2c[nH]c3ccccc23)C(=O)N[C@@H](CN)C(=O)N[C@H](C)C(=O)N[C@@H](CCc2ccc(O)cc2)C(=O)N[C@@H](Cc2ccc(-c3ccc(C(=O)O)cc3)cc2)C(=O)N[C@@H](Cc2c[nH]c3ccccc23)C(=O)N[C@@H](Cc2ccc(C(=O)O)cc2)C(=O)NCC(=O)N2C[C@H](N)C[C@H]2C(=O)N[C@@H]([C@@H](C)c2c[nH]c3cccc(Cl)c23)C(=O)N[C@@H](CC(=O)O)C(=O)N1C` [Example 53] (cyclo([Bip(4'-COOH)]W[Phe(4-COOH)]G[Pro(4R-NH2)][Trp(4-Cl)(βS-Me)]D[dNMeA]G[Bip(4'-COOH)]W[Dap][dA][hTyr])) was run?
Answer: 10.38

Question: `C[C@@H]1C(=O)NCC(=O)N[C@@H](Cc2ccc(-c3ccc(C(=O)O)cc3)cc2)C(=O)N[C@@H](Cc2c[nH]c3ccccc23)C(=O)NCC(=O)N[C@H](CCN)C(=O)N[C@@H](CCc2ccc(O)cc2)C(=O)N[C@@H](Cc2ccc(-c3ccc(C(=O)O)cc3)cc2)C(=O)N[C@@H](Cc2c[nH]c3ccccc23)C(=O)N[C@@H](Cc2ccc(C(=O)O)cc2)C(=O)NCC(=O)N2C[C@H](N)C[C@H]2C(=O)N[C@@H]([C@@H](C)c2c[nH]c3cccc(Cl)c23)C(=O)N[C@@H](CC(=O)O)C(=O)N1C` [Example 54] (cyclo([Bip(4'-COOH)]W[Phe(4-COOH)]G[Pro(4R-NH2)][Trp(4-Cl)(βS-Me)]D[dNMeA]G[Bip(4'-COOH)]WG[dDab][hTyr])) was tested. Which pIC50 did it give?
Answer: 10.16

Question: With `C[C@@H]1C(=O)NCC(=O)N[C@@H](Cc2ccc(-c3ccc(C(=O)O)cc3)cc2)C(=O)N[C@@H](Cc2c[nH]c3ccccc23)C(=O)NCC(=O)N[C@H](CCN)C(=O)N[C@@H](CCc2ccc(O)cc2)C(=O)N[C@@H](Cc2ccc(-c3ccc(C(=O)O)cc3)cc2)C(=O)N[C@@H](Cc2c[nH]c3ccccc23)C(=O)N[C@@H](Cc2ccc(C(=O)O)cc2)C(=O)NCC(=O)N2C[C@H](N)C[C@H]2C(=O)N[C@@H]([C@@H](C)c2c[nH]c3cccc(Cl)c23)C(=O)N[C@@H](CCC(=O)O)C(=O)N1C` [Example 55] (cyclo([Bip(4'-COOH)]W[Phe(4-COOH)]G[Pro(4R-NH2)][Trp(4-Cl)(βS-Me)]E[dNMeA]G[Bip(4'-COOH)]WG[dDab][hTyr])) as the compound, how does the pIC50 read?
Answer: 10.31

Question: How did the pIC50 turn out when `C[C@@H]1C(=O)NCC(=O)N[C@@H](Cc2ccc(-c3ccc(C(=O)O)cc3)cc2)C(=O)N[C@@H](Cc2c[nH]c3ccccc23)C(=O)NCC(=O)N[C@H](CCN)C(=O)N[C@@H](CCc2ccc(O)cc2)C(=O)N[C@@H](Cc2ccc(-c3ccc(C(=O)O)cc3)cc2)C(=O)N[C@@H](Cc2c[nH]c3ccccc23)C(=O)N[C@@H](Cc2ccc(C(=O)O)cc2)C(=O)NCC(=O)N2C[C@H](N)C[C@H]2C(=O)N[C@@H]([C@@H](C)c2c[nH]c3cccc(Cl)c23)C(=O)N[C@@H](CC(N)=O)C(=O)N1C` [Example 56] (cyclo([Bip(4'-COOH)]W[Phe(4-COOH)]G[Pro(4R-NH2)][Trp(4-Cl)(βS-Me)]N[dNMeA]G[Bip(4'-COOH)]WG[dDab][hTyr])) was run?
Answer: 10.69

Question: With `C[C@@H]1C(=O)NCC(=O)N[C@@H](Cc2ccc(-c3ccc(C(=O)O)cc3)cc2)C(=O)N[C@@H](Cc2c[nH]c3ccccc23)C(=O)NCC(=O)N[C@H](CCN)C(=O)N[C@@H](CCc2ccc(O)cc2)C(=O)N[C@@H](Cc2ccc(-c3ccc(C(=O)O)cc3)cc2)C(=O)N[C@@H](Cc2c[nH]c3ccccc23)C(=O)N[C@@H](Cc2ccc(C(=O)O)cc2)C(=O)NCC(=O)N2C[C@H](N)C[C@H]2C(=O)N[C@@H]([C@@H](C)c2c[nH]c3cccc(Cl)c23)C(=O)N[C@@H](CCC(N)=O)C(=O)N1C` [Example 57] (cyclo([Bip(4'-COOH)]W[Phe(4-COOH)]G[Pro(4R-NH2)][Trp(4-Cl)(βS-Me)]Q[dNMeA]G[Bip(4'-COOH)]WG[dDab][hTyr])) as the compound, how does the pIC50 read?
Answer: 10.06

Question: `CC(C)C[C@@H]1NC(=O)[C@H](CCCCN)NC(=O)[C@H](Cc2ccc(-c3ccc(C(=O)O)cc3)cc2)NC(=O)CNC(=O)[C@@H](C)N(C)C(=O)[C@H](C)NC(=O)[C@H]([C@@H](C)c2c[nH]c3cccc(F)c23)NC(=O)[C@@H]2C[C@@H](N)CN2C(=O)CNC(=O)[C@H](Cc2ccc(C(=O)O)cc2)NC(=O)[C@H](Cc2c[nH]c3ccccc23)NC(=O)[C@H](Cc2ccc(-c3ccc(C(=O)O)cc3)cc2)NC(=O)[C@H](CCc2ccc(O)cc2)NC(=O)[C@@H](C)NC1=O` [Example 58] (cyclo([Bip(4'-COOH)]W[Phe(4-COOH)]G[Pro(4R-NH2)][Trp(βS-Me,4-F)]A[dNMeA]G[Bip(4'-COOH)]KL[dA][hTyr])) was tested. Which pIC50 did it give?
Answer: 9.61
